# From patent US20250243171A1, “QUINAZOLINE COMPOUNDS FOR TREATMENT OF DISEASE” (Arthrosi Therapeutics, Inc., priority 2021, published 2025)
# Key:
# Experiment in all cases: EC50 assay: Ba/F3 stable cell proliferation (CCK-8, 72 h)
# Assay type in all cases: cell-based
# Ba/F3 stable cells [1] = molecular target: T1, Ba/F3 stable cells (Homo sapiens, UniProt P00533, DUP767-769, cells depend on it); details: Ba/F3-EGFR V769-D770insASV cells
# T1 construct: EC50 Ba/F3-EGFR V769-D770insASV; other: Ba/F3-EGFR V769-D770insASV cells, 72 h, CCK-8
# Outline: (§1)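 Ba/F3 stable cells were seeded at 4,000 cells/90 μL/well in 96-well plates and held 2 h at 37° C. in 5% CO2, then given 10 μL of serially titrated compound (0.1% DMSO final). After 72 h at 37° C., CCK-8 reagent was added for 4 hours and absorbance read at 450 nm to derive EC50.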
# Ba/F3 stable cells [2] = molecular target: T2, Ba/F3 stable cells (Homo sapiens, UniProt P00533, DUP768-770, cells depend on it); details: Ba/F3-EGFR D770-N771insSVD cells
# T2 construct: EC50 Ba/F3-EGFR D770-N771insSVD; other: Ba/F3-EGFR D770-N771insSVD cells, 72 h, CCK-8
# Outline: as §1
# Ba/F3 stable cells [3] = molecular target: T3, Ba/F3 stable cells (Homo sapiens, UniProt P00533, DUP771-773, cells depend on it); details: Ba/F3-EGFR H773-V774insNPH cells
# T3 construct: EC50 Ba/F3-EGFR H773-V774insNPH; other: Ba/F3-EGFR H773-V774insNPH cells, 72 h, CCK-8
# Outline: as §1
# Ba/F3 stable cells [4] = molecular target: T4, Ba/F3 stable cells (Homo sapiens, UniProt P00533, INS763FQEA, cells depend on it); details: Ba/F3-EGFR A763-Y764insFQEA cells
# T4 construct: EC50 Ba/F3-EGFR A763-Y764insFQEA; other: Ba/F3-EGFR A763-Y764insFQEA cells, 72 h, CCK-8
# Outline: as §1
# Ba/F3 stable cells [5] = molecular target: T5, Ba/F3 stable cells (Homo sapiens, UniProt P00533, T790M/L858R, cells depend on it); details: Ba/F3-EGFR L858R-T790M cells
# T5 construct: EC50 Ba/F3-EGFR L858R-T790M; other: Ba/F3-EGFR L858R-T790M cells, 72 h, CCK-8
# Outline: as §1
# Ba/F3 stable cells [6] = molecular target: T6, Ba/F3 stable cells (Homo sapiens, UniProt P04626, DUP772-775, cells depend on it); details: Ba/F3-HER2 A775-G776insYVMA cells
# T6 construct: EC50 Ba/F3-HER2 A775-G776insYVMA; other: Ba/F3-HER2 A775-G776insYVMA cells, 72 h, CCK-8
# Outline: as §1
# T4 sequence (P00533 with tags, fused parts or gaps INS763FQEA): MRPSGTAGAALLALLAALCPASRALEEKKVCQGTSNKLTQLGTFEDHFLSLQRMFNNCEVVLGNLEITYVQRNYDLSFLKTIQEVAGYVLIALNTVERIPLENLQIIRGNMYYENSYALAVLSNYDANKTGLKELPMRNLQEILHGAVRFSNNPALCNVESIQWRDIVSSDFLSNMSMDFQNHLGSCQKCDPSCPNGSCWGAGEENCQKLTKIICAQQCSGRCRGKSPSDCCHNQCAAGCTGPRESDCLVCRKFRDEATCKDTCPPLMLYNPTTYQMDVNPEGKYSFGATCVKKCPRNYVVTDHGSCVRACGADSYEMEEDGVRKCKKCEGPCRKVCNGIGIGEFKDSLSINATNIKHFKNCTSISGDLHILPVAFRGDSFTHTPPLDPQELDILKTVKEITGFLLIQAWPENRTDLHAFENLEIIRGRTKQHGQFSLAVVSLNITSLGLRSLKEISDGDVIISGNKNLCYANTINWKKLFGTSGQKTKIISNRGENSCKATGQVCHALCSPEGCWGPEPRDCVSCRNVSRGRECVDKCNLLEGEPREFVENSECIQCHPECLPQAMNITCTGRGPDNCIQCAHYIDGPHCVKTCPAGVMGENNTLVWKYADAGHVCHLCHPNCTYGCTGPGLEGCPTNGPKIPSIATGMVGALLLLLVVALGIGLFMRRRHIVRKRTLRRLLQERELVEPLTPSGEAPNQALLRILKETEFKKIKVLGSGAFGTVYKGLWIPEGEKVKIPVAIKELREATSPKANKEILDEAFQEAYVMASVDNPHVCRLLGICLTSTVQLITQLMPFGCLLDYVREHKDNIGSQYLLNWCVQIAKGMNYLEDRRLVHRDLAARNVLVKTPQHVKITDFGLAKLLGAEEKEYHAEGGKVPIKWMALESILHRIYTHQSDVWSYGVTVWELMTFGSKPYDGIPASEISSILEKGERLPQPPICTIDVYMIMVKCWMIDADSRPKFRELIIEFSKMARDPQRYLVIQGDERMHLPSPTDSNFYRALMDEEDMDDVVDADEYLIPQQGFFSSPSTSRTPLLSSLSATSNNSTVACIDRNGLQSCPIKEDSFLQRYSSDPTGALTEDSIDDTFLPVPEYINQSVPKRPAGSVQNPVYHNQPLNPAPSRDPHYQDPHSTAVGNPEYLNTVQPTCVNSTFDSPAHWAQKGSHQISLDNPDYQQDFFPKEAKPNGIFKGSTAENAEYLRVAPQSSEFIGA
# T1 sequence (P00533 with tags, fused parts or gaps DUP767-769): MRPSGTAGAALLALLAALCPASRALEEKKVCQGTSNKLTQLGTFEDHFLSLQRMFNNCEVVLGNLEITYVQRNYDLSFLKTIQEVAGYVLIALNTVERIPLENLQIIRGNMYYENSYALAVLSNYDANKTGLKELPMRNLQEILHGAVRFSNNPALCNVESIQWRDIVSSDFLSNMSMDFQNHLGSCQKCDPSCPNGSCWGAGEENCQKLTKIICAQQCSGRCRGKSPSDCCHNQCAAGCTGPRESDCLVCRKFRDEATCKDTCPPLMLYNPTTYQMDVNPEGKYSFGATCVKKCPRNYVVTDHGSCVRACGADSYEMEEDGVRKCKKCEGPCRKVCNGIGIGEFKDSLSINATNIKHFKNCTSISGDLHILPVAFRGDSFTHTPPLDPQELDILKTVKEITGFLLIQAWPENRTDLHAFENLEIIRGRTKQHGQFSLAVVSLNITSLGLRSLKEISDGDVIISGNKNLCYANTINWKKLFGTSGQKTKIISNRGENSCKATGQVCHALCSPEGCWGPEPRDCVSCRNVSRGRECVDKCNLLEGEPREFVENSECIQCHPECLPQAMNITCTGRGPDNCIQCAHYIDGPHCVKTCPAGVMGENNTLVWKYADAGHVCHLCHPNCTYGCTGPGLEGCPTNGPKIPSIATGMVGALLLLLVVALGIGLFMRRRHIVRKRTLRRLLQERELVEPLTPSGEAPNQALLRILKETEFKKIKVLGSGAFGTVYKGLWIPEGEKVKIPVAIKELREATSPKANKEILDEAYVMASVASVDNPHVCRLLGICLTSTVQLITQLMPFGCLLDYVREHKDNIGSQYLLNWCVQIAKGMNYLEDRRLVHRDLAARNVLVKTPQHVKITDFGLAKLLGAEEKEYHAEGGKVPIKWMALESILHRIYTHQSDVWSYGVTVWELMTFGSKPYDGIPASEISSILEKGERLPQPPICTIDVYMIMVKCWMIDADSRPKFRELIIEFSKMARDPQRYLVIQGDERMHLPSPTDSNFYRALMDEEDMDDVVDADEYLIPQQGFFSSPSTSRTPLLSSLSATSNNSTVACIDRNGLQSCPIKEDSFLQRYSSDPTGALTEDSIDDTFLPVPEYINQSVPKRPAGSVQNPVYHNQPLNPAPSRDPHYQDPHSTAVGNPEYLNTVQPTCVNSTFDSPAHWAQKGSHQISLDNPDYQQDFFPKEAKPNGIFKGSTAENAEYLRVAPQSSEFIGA
# T6 sequence (P04626 with tags, fused parts or gaps DUP772-775): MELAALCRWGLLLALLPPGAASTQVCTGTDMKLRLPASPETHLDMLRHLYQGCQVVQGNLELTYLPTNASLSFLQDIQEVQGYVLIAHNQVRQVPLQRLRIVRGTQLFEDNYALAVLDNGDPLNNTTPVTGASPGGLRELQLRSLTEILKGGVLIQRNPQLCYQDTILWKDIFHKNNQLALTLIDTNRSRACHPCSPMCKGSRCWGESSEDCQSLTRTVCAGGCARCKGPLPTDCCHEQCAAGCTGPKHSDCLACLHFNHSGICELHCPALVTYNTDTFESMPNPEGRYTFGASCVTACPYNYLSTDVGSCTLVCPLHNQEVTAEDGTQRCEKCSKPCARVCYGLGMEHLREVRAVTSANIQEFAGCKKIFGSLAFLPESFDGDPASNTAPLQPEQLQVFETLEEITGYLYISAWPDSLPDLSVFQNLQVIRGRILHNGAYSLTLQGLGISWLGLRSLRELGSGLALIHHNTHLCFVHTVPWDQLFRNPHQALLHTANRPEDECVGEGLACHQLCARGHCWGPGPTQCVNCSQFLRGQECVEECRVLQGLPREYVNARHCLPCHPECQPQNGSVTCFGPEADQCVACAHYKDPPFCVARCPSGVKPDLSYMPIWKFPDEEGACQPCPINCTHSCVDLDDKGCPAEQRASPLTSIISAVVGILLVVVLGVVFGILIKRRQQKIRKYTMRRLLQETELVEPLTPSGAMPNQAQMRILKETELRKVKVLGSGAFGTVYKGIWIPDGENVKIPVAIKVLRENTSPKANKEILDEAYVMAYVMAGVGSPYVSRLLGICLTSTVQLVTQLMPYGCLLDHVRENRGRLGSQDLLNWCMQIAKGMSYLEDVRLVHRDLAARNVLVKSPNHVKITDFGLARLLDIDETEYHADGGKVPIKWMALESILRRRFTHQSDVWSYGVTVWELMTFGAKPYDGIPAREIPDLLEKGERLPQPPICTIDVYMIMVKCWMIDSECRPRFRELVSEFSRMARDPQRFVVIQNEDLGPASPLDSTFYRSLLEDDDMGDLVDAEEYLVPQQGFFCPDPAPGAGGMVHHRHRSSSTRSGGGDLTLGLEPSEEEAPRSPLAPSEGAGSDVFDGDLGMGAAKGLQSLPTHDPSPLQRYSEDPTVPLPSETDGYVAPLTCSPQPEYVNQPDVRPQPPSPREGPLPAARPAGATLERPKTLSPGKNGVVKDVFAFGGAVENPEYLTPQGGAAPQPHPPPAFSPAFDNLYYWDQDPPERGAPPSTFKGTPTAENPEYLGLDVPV
# T5 sequence (P00533 whole entry T790M/L858R): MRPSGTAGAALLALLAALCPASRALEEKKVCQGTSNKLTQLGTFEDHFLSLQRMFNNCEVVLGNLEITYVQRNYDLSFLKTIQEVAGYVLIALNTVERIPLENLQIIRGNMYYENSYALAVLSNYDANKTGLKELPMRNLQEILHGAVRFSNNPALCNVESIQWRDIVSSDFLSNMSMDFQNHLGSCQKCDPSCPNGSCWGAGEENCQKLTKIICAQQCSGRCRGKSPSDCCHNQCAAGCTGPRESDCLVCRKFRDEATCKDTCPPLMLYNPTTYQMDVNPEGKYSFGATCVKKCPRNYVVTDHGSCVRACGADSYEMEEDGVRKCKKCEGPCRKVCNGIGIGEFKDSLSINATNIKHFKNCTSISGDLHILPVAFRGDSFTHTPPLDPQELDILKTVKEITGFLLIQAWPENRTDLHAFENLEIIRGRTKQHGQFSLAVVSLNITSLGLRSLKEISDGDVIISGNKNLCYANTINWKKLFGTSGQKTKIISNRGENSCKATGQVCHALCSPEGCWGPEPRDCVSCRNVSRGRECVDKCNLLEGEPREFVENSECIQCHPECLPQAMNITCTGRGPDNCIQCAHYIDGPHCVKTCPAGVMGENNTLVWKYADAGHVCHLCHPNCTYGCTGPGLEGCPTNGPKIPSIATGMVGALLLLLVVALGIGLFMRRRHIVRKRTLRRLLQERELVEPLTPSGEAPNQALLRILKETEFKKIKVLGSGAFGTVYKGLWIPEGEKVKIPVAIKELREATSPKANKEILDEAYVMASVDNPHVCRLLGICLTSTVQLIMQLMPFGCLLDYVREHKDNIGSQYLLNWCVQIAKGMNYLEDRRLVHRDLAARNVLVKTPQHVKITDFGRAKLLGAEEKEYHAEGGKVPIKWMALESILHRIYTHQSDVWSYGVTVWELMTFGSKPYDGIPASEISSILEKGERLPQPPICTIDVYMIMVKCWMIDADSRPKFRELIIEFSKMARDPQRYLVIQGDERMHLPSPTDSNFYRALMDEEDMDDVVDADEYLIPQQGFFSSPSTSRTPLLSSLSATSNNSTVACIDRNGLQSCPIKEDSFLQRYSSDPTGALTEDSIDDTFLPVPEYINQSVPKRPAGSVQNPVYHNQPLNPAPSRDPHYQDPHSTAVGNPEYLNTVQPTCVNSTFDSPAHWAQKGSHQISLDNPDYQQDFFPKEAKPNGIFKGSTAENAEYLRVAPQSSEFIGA
SMILES,EC50 (Ba/F3 stable cells [1]),EC50 (Ba/F3 stable cells [2]),EC50 (Ba/F3 stable cells [3]),EC50 (Ba/F3 stable cells [4]),EC50 (Ba/F3 stable cells [5]),EC50 (Ba/F3 stable cells [6])
"C=CC(=O)N1CCC(Oc2cc3c(Nc4ccc5ncsc5c4)ncnc3cc2OC)CC1 [Compound 145, 1-(4-((4-(benzo[d]thiazol-6-ylamino)-7-methoxyquinazolin-6-yl)oxy)piperidin-1-yl)prop-2-en-1-one]",200 to 1000 nM,> 1000 nM,200 to 1000 nM,≤ 200 nM,200 to 1000 nM,> 1000 nM
"C=CC(=O)N1CCC(Oc2cc3c(Nc4cccc5cccnc45)ncnc3cc2OC)CC1 [Compound 146, 1-(4-((7-methoxy-4-(quinolin-8-ylamino)quinazolin-6-yl)oxy)piperidin-1-yl)prop-2-en-1-one]",≤ 200 nM,200 to 1000 nM,200 to 1000 nM,≤ 200 nM,200 to 1000 nM,200 to 1000 nM
"C=CC(=O)N1CCC(Oc2cc3c(N4CCN(c5cccc(Cl)c5)CC4)ncnc3cc2OC)CC1 [Compound 147, 1-(4-((4-(4-(3-chlorophenyl)piperazin-1-yl)-7-methoxyquinazolin-6-yl)oxy)piperidin-1-yl)prop-2-en-1-one]",> 1000 nM,> 1000 nM,> 1000 nM,> 1000 nM,> 1000 nM,> 1000 nM
"C=CC(=O)N1CCC(Oc2cc3c(Nc4ccc5ccccc5c4)ncnc3cc2OC)CC1 [Compound 148, 1-(4-((7-methoxy-4-(naphthalen-2-ylamino)quinazolin-6-yl)oxy)piperidin-1-yl)prop-2-en-1-one]",≤ 200 nM,≤ 200 nM,≤ 200 nM,≤ 200 nM,≤ 200 nM,200 to 1000 nM
"C=CC(=O)N1CCC(Oc2cc3c(Nc4cccc5ccccc45)ncnc3cc2OC)CC1 [Compound 149, 1-(4-((7-methoxy-4-(naphthalen-1-ylamino)quinazolin-6-yl)oxy)piperidin-1-yl)prop-2-en-1-one]",≤ 200 nM,≤ 200 nM,≤ 200 nM,≤ 200 nM,≤ 200 nM,≤ 200 nM
"C=CC(=O)N1CCC(Oc2cc3c(Nc4ccc5[nH]ncc5c4)ncnc3cc2OC)CC1 [Compound 150, 1-(4-((4-((1H-indazol-5-yl)amino)-7-methoxyquinazolin-6-yl)oxy)piperidin-1-yl)prop-2-en-1-one]",200 to 1000 nM,> 1000 nM,200 to 1000 nM,≤ 200 nM,> 1000 nM,> 1000 nM
"C=CC(=O)N1CCC(Oc2cc3c(Nc4cc5oc6ccccc6c5cc4OC)ncnc3cc2OC)CC1 [Compound 151, 1-(4-((7-methoxy-4-((2-methoxydibenzo[b,d]furan-3-yl)amino)quinazolin-6-yl)oxy)piperidin-1-yl)prop-2-en-1-one]",> 1000 nM,> 1000 nM,> 1000 nM,> 1000 nM,> 1000 nM,> 1000 nM
"C=CC(=O)N1CCC(Oc2cc3c(Nc4ccc5c(c4)OCO5)ncnc3cc2OC)CC1 [Compound 152, 1-(4-((4-(benzo[d][1,3]dioxol-5-ylamino)-7-methoxyquinazolin-6-yl)oxy)piperidin-1-yl)prop-2-en-1-one]",200 to 1000 nM,200 to 1000 nM,200 to 1000 nM,≤ 200 nM,200 to 1000 nM,≤ 200 nM
"C=CC(=O)N1CCC(Oc2cc3c(Nc4ccc5c(c4)CCC5)ncnc3cc2OC)CC1 [Compound 153, 1-(4-((4-((2,3-dihydro-1H-inden-5-yl)amino)-7-methoxyquinazolin-6-yl)oxy)piperidin-1-yl)prop-2-en-1-one]",≤ 200 nM,200 to 1000 nM,200 to 1000 nM,≤ 200 nM,200 to 1000 nM,200 to 1000 nM
"C=CC(=O)N1CCC(Oc2cc3c(Nc4ccc5sc(C)nc5c4)ncnc3cc2OC)CC1 [Compound 155, 1-(4-((7-methoxy-4-((2-methylbenzo[d]thiazol-5-yl)amino)quinazolin-6-yl)oxy)piperidin-1-yl)prop-2-en-1-one]",> 1000 nM,> 1000 nM,> 1000 nM,≤ 200 nM,200 to 1000 nM,200 to 1000 nM
"C=CC(=O)N1CCC(Oc2cc3c(Nc4cccc5c4CCC5)ncnc3cc2OC)CC1 [Compound 156, 1-(4-((4-((2,3-dihydro-1H-inden-4-yl)amino)-7-methoxyquinazolin-6-yl)oxy)piperidin-1-yl)prop-2-en-1-one]",≤ 200 nM,200 to 1000 nM,≤ 200 nM,≤ 200 nM,200 to 1000 nM,≤ 200 nM
"C=CC(=O)N1CCC(Oc2cc3c(Nc4ccc5ccccc5n4)ncnc3cc2OC)CC1 [Compound 158, 1-(4-((7-methoxy-4-(quinolin-2-ylamino)quinazolin-6-yl)oxy)piperidin-1-yl)prop-2-en-1-one]",200 to 1000 nM,> 1000 nM,200 to 1000 nM,≤ 200 nM,≤ 200 nM,> 1000 nM
"C=CC(=O)N1CCC(Oc2cc3c(Nc4cc5ccccc5cn4)ncnc3cc2OC)CC1 [Compound 159, 1-(4-((4-(isoquinolin-3-ylamino)-7-methoxyquinazolin-6-yl)oxy)piperidin-1-yl)prop-2-en-1-one]",200 to 1000 nM,> 1000 nM,200 to 1000 nM,≤ 200 nM,200 to 1000 nM,200 to 1000 nM
"C=CC(=O)N1CCC(Oc2cc3c(Nc4ccc5ccccc5c4Cl)ncnc3cc2OC)CC1 [Compound 160, 1-(4-((4-((1-chloronaphthalen-2-yl)amino)-7-methoxyquinazolin-6-yl)oxy)piperidin-1-yl)prop-2-en-1-one]",≤ 200 nM,> 1000 nM,200 to 1000 nM,≤ 200 nM,200 to 1000 nM,> 1000 nM
"C=CC(=O)N1CCC(Oc2cc3c(Nc4nccc5ccccc45)ncnc3cc2OC)CC1 [Compound 161, 1-(4-((4-(isoquinolin-1-ylamino)-7-methoxyquinazolin-6-yl)oxy)piperidin-1-yl)prop-2-en-1-one]",200 to 1000 nM,> 1000 nM,200 to 1000 nM,≤ 200 nM,200 to 1000 nM,> 1000 nM
"C=CC(=O)N1CCC(Oc2cc3c(Nc4ccnc5ccccc45)ncnc3cc2OC)CC1 [Compound 162, 1-(4-((7-methoxy-4-(quinolin-4-ylamino)quinazolin-6-yl)oxy)piperidin-1-yl)prop-2-en-1-one]",≤ 200 nM,> 1000 nM,200 to 1000 nM,≤ 200 nM,≤ 200 nM,200 to 1000 nM
"C=CC(=O)N1CCC(Oc2cc3c(Nc4ccc(Cl)c5ccccc45)ncnc3cc2OC)CC1 [Compound 164, 1-(4-((4-((4-chloronaphthalen-1-yl)amino)-7-methoxyquinazolin-6-yl)oxy)piperidin-1-yl)prop-2-en-1-one]",≤ 200 nM,200 to 1000 nM,200 to 1000 nM,≤ 200 nM,≤ 200 nM,200 to 1000 nM
"C=CC(=O)N1CCC(Oc2cc3c(Nc4cccc5[nH]ccc45)ncnc3cc2OC)CC1 [Compound 165, 1-(4-((4-((1H-indol-4-yl)amino)-7-methoxyquinazolin-6-yl)oxy)piperidin-1-yl)prop-2-en-1-one]",200 to 1000 nM,> 1000 nM,200 to 1000 nM,≤ 200 nM,200 to 1000 nM,> 1000 nM
"C=CC(=O)N1CCC(Oc2cc3c(Nc4cccc5cc[nH]c45)ncnc3cc2OC)CC1 [Compound 166, 1-(4-((4-((1H-indol-7-yl)amino)-7-methoxyquinazolin-6-yl)oxy)piperidin-1-yl)prop-2-en-1-one]",≤ 200 nM,> 1000 nM,≤ 200 nM,≤ 200 nM,200 to 1000 nM,≤ 200 nM
"C=CC(=O)N1CCC(Oc2cc3c(Nc4ccc(C)c5ccccc45)ncnc3cc2OC)CC1 [Compound 167, 1-(4-((7-methoxy-4-((4-methylnaphthalen-1-yl)amino)quinazolin-6-yl)oxy)piperidin-1-yl)prop-2-en-1-one]",200 to 1000 nM,> 1000 nM,200 to 1000 nM,≤ 200 nM,≤ 200 nM,200 to 1000 nM
"C=CC(=O)N1CCC(Oc2cc3c(Nc4ccc5c(c4)CCN5)ncnc3cc2OC)CC1 [Compound 168, 1-(4-((4-(indolin-5-ylamino)-7-methoxyquinazolin-6-yl)oxy)piperidin-1-yl)prop-2-en-1-one]",≤ 200 nM,200 to 1000 nM,≤ 200 nM,≤ 200 nM,> 1000 nM,≤ 200 nM
